Legend:
NB-4 AML cell line [1] = experiment: CD38 surface expression by FACS with PE-labeled anti-CD38 antibody; format: cell-based; settings: 24 hours; for PE-CD38 molecules/cell: NB-4
Protocol: Effect of ATRA on CD38 surface expression was assessed in NB-4 AML cell line. Tumor cells were incubated at 37° C. for 24 hours in the presence or absence of 10 nM or 100 nM ATRA. After 24 hour incubation, the cells were harvested and stained for CD38. ATRA induced ˜10-fold increase in CD38 receptors in the NB-4 cell line. CD38 surface expression was assessed using FACS using PE-labeled anti-CD38 antibody (R&D Systems) (Table 2).

NB4 [2] = experiment: In vitro ADCC with PBMC effector cells; format: cell-based; settings: PBMC effector cells at ratio 50:1, 6 hours
Protocol: (§1) In vitro ADCC assays were performed using AML tumor cell lines and Peripheral Blood Mononuclear Cells (PBMC) as effector cells at a ratio of 50:1. One hundred μl of target (tumor) cells (1×10^4 cells) were added to wells of 96-well U-bottom plates. An additional 100 μl was added with or without antibody, and the plates were incubated for 30 minutes at room temperature (RT) before adding effector cells (PBMC). Seventy five μl of PBMCs at concentration 6.66×10^6 cells/ml was added to the wells of the plates, and the plates were incubated at 37° C. for 6 hours. Plates were centrifuged at 250 g for 4 minutes, 50 μl of supernatant removed per well and cell lysis was measured using the CellTiter-Glo® assay (Promega).

ML-2 [3] = experiment: In vitro ADCC with PBMC effector cells; format: cell-based; settings: PBMC effector cells at ratio 50:1, 6 hours
Protocol: as §1

MOLM-16 [4] = experiment: In vitro ADCC with PBMC effector cells; format: cell-based; settings: PBMC effector cells at ratio 50:1, 6 hours
Protocol: as §1

MV-4-11 [5] = experiment: In vitro ADCC with PBMC effector cells; format: cell-based; settings: PBMC effector cells at ratio 50:1, 6 hours
Protocol: as §1

MOLM-13 [6] = experiment: In vitro ADCC with PBMC effector cells; format: cell-based; settings: PBMC effector cells at ratio 50:1, 6 hours
Protocol: as §1

THP-1 [7] = experiment: In vitro ADCC with PBMC effector cells; format: cell-based; settings: PBMC effector cells at ratio 50:1, 6 hours
Protocol: as §1

ML-2 [8] = experiment: Apoptosis (Annexin-V flow cytometry); format: cell-based; settings: antibody 1 μg/ml, 22 hours, early and late apoptosis
Protocol: (§2) One ml of target cells (5×10^5 cells/ml) were added to the well of a 24-well plate, together with test antibody (1 μg/ml) in the presence or absence of rabbit anti-huIgG (10 μg/ml; F(ab′)2 Fcγ-specific). Cells were incubated for 22 hours (5% CO2, 37° C.). Thereafter, cells were harvested (1000 rpm, 5 min) and washed twice in PBS (1000 rpm, 5 min). Cells were resuspended in 250 μl binding buffer (Annexin-V Apoptosis kit, BD Biosciences) according to manufacturer's instruction, followed by flow cytometry analysis.
(§3) Apoptosis was measured by both early and late apoptosis (Q2 and Q3 in FIG. 1A and FIG. 1B).

MOLM-16 [9] = experiment: Apoptosis (Annexin-V flow cytometry); format: cell-based; settings: antibody 1 μg/ml, 22 hours, early and late apoptosis
Protocol: as §2, §3

MV-4-11 [10] = experiment: Apoptosis (Annexin-V flow cytometry); format: cell-based; settings: antibody 1 μg/ml, 22 hours, early and late apoptosis
Protocol: as §2, §3

MOLM-13 [11] = experiment: Apoptosis (Annexin-V flow cytometry); format: cell-based; settings: antibody 1 μg/ml, 22 hours, early and late apoptosis
Protocol: as §2, §3

NB-4 AML cell line [12] = experiment: Apoptosis (Annexin-V flow cytometry); format: cell-based; settings: for daratumumab-induced apoptosis: NB-4 cell line
Protocol: as §2, §3

THP-1 [13] = experiment: Apoptosis (Annexin-V flow cytometry); format: cell-based; settings: antibody 1 μg/ml, 22 hours, early and late apoptosis
Protocol: as §2, §3

[14] = test system: CD38 on leukemia blasts (CD45+CD33+ positive cells); experiment: CD38 expression on leukemic blasts in PDX AML 3406 model; format: in vivo, NSG mice; settings: after 5 weeks of treatment
Protocol: (§4) 5 million AML MNCs were T-cell depleted and transplanted via tail vein into 6-8 weeks old sub-lethally irradiated NSG mice (n=10 per group). 4 to 6 weeks post-engraftment, bone marrow aspirates were collected from each mouse and were analyzed by flow cytometry to determine the level of leukemia engraftment (% of human CD45^+CD33^+/− cells). Based on engraftment levels, mice were randomized and conditioned with either IgG1 or daratumumab (DARA, pre-dosing at 0.5 mg/kg). 24 hours later, mice were untreated (Ctrl) or treated for 5 consecutive weeks with DARA or IgG1 alone (i.p, 10 mg/kg once a week). 2-3 days after the last treatment, mice were sacrificed and bone marrow, spleen, peripheral blood and plasma were collected for analysis. Flow cytometry was performed to assess percentage of human CD45^+CD33^+ cells in the BM, SPL and PB of 3 AML patients engrafted in NSG mice (AML 3406 model: FIG. 2A; AML 7577 model: FIG. 2B, AML 8096 model: FIG. 2C) and absolute number of the human CD45^+CD33^+ cells in bone marrow (FIG. 3A), spleen (FIG. 3B) and peripheral blood (FIG. 3C) of one representative AML patient.
Effect of daratumumab on CD38 expression on leukemic blasts was assessed in one representative AML model described in Example 3 after 5 weeks of treatment with daratumumab or isotype control using PE-labeled anti-CD38 antibody (R&D Systems).

AML 8096 model = experiment: Patient-derived xenograft (PDX) AML 8096 model, leukemic burden; format: in vivo, NSG mice; settings: spleen, i.p. 10 mg/kg once a week, 5 weeks
From the text: (§5) Patient tumor models AML 3406, AML 7577 and AML 8096 were used in the study.
AML 8096 model: Leukemic cells were collected from a person with AML (FAB subtype M2). White blood cell count was 20×10e^9/L, from which 70% were blast cells. Patient had normal karyotype with wild type TP53, FLT3, NPM1, and insertion 570-587, 3GCACCC>4GCACCC in CEBPA exon1. Patient has a history of polycythemia versa, and received idarubicin/cytrabine for induction chemotherapy. Patient also received Hudrea® (hydroxyurea).
as §4, with “Flow cytometry was performed to assess percentage of human CD45^+CD33^+ cells in the BM, SPL and PB of 3 AML patients engrafted in NSG mice (AML 3406 model: FIG. 2A; AML 7577 model: FIG. 2B, AML 8096 model: FIG. 2C) and absolute number of the human CD45^+CD33^+ cells in bone marrow (FIG. 3A), spleen (FIG. 3B) and peripheral blood (FIG. 3C) of one representative AML patient.” left out

AML 3406 model = experiment: Patient-derived xenograft (PDX) AML 3406 model, leukemic burden; format: in vivo, NSG mice; settings: for tumor burden (% leukemic CD45+CD33+ cells): i.p. 10 mg/kg once a week, 5 weeks
From the text: as §5
AML3406 model: Patient tumor cells were positive for FLT-3ITD. Patient has a history of polycythemia versa, and received idarubicin/cytrabine for induction chemotherapy. Patient also received Hudrea® (hydroxyurea).
as §4

AML cell lines [15] = experiment: ADCC, summary over AML cell lines; format: cell-based
Protocol: as §1

AML cell lines [16] = experiment: CDC, summary over AML cell lines; format: cell-based
Protocol: (§6) Target cells were harvested and adjusted to a concentration of 80×10^4 cells/ml. Twelve μl of target cells were added to wells of a 96-well plate, and serial dilution of antibodies added onto the cells. The wells were incubated for 15 minutes, after which human serum high in complement was added at a final concentration of 10%. Reaction mixture was incubated for 21/2 hours at 37° C., and cell lysis was measured using the CellTiter-Glo® assay (Promega).

NB4 [17] = experiment: CDC (cell lysis, CellTiter-Glo); format: cell-based; settings: human serum 10%
Protocol: as §6

ML-2 [18] = experiment: CDC (cell lysis, CellTiter-Glo); format: cell-based; settings: human serum 10%
Protocol: as §6

MOLM-16 [19] = experiment: CDC (cell lysis, CellTiter-Glo); format: cell-based; settings: human serum 10%
Protocol: as §6

MV-4-11 [20] = experiment: CDC (cell lysis, CellTiter-Glo); format: cell-based; settings: human serum 10%
Protocol: as §6

MOLM-13 [21] = experiment: CDC (cell lysis, CellTiter-Glo); format: cell-based; settings: human serum 10%
Protocol: as §6

THP-1 [22] = experiment: CDC (cell lysis, CellTiter-Glo); format: cell-based; settings: human serum 10%
Protocol: as §6

AML cell lines [23] = experiment: Apoptosis, summary over AML cell lines; format: cell-based
Protocol: as §2, §3

AML 7577 model = experiment: Patient-derived xenograft (PDX) AML 7577 model, leukemic burden; format: in vivo, NSG mice; settings: peripheral blood, i.p. 10 mg/kg once a week, 5 weeks
From the text: as §5
AML 7577 model: Leukemic cells were collected from a person with AML (FAB subtype M5). Patient had normal karyotype and following mutations: IDH2(R140Q); FLT3-ITD; DNMT3A R882H, NPM1, CEBPA insertion (SNP). Patient has a history of polycythemia versa, and received idarubicin/cytrabine for induction chemotherapy. Patient also received Hudrea® (hydroxyurea).
as §4, with “Flow cytometry was performed to assess percentage of human CD45^+CD33^+ cells in the BM, SPL and PB of 3 AML patients engrafted in NSG mice (AML 3406 model: FIG. 2A; AML 7577 model: FIG. 2B, AML 8096 model: FIG. 2C) and absolute number of the human CD45^+CD33^+ cells in bone marrow (FIG. 3A), spleen (FIG. 3B) and peripheral blood (FIG. 3C) of one representative AML patient.” left out

With `CC1=C(/C=C/C(C)=C/C=C/C(C)=C/C(=O)O)C(C)(C)CCC1` [ATRA, all-trans-retinoic acid] the PE-CD38 molecules/cell (NB-4 AML cell line [1]; 10 nM ATRA) was 185737 molecules/cell, the PE-CD38 molecules/cell (NB-4 AML cell line [1]; 100 nM ATRA) was 210570 molecules/cell and the “increase in CD38 receptors” value (NB-4 AML cell line [1]; NB-4 cell line, 10 nM or 100 nM ATRA) was roughly 10 fold.

daratumumab showed an ADCC (NB4 [2]) of 18.30%, an ADCC (ML-2 [3]) of 6.30% and an ADCC (MOLM-16 [4]) of 18.20%. For the same compound, the ADCC (MV-4-11 [5]) was 2.30%, the ADCC (MOLM-13 [6]) was 9.40% and the ADCC (THP-1 [7]) was 11.30%. For the same compound, the Apoptosis (ML-2 [8]) was 5%, the Apoptosis (MOLM-16 [9]) was 20-30% and the Apoptosis (MV-4-11 [10]) was 10-12%. For the same compound, the Apoptosis (MOLM-13 [11]) was 10-15%, the Apoptosis (NB-4 AML cell line [12]; NB4, antibody 1 μg/ml, 22 hours, early and late apoptosis) was 18% and the daratumumab-induced apoptosis (NB-4 AML cell line [12]; with crosslinking antibody (FIG. 1B)) was 18.3%. The daratumumab-induced apoptosis (NB-4 AML cell line [12]; without crosslinking antibody (FIG. 1A)) was 19.2%, the Apoptosis (THP-1 [13]) was 5-7% and the “percentage of CD38-positive AML blasts” value ([14]; bone marrow, spleen and peripheral blood (FIG. 4B)) was “reduced”. The “expression of CD38 on leukemia blasts” value ([14]; bone marrow) was “reduced expression of CD38”, the “expression of CD38 on leukemia blasts” value ([14]; peripheral blood) was “reduced expression of CD38” and the “expression of CD38 on leukemia blasts” value ([14]; spleen) was “reduced expression of CD38”. The “tumor burden (% leukemic CD45+CD33+ cells)” value (AML 8096 model) was “reduced tumor burden”, the “total leukemic burden (number of CD45+CD33+ cells per four bones)” value (AML 3406 model; bone marrow, Ctrl vs Dara) was “no significant difference” and the “total leukemic burden (number of CD45+CD33+ cells per μl blood)” value (AML 3406 model; peripheral blood) was “significantly reduced total leukemic burden”. For the same compound, the “tumor burden (% leukemic CD45+CD33+ cells)” value (AML 3406 model; peripheral blood) was “reduced tumor burden”, the “total leukemic burden (number of CD45+CD33+ cells per spleen)” value (AML 3406 model; spleen) was “significantly reduced total leukemic burden” and the “tumor burden (% leukemic CD45+CD33+ cells)” value (AML 3406 model; spleen) was “reduced tumor burden”. For the same compound, the ADCC (AML cell lines [15]) was “did not induce significant ADCC or CDC”, the CDC (AML cell lines [16]) was “did not induce significant ADCC or CDC” and the CDC (NB4 [17]) was 4%. For the same compound, the CDC (ML-2 [18]) was 0%, the CDC (MOLM-16 [19]) was 5% and the CDC (MV-4-11 [20]) was 0%. The CDC (MOLM-13 [21]) was 0%, the CDC (THP-1 [22]) was 5% and the “AML cell killing by apoptosis” value (AML cell lines [23]) was “induced AML cell killing by apoptosis”. For the same compound, the “tumor burden (% leukemic CD45+CD33+ cells)” value (AML 7577 model) was “reduced tumor burden”.

— US12286474B2, “Anti-CD38 antibodies for treatment of acute myeloid leukemia” (Janssen Biotech, Inc., priority 2014, dated 2025)
